These are literature values, as cited in patent US20030171260A1, “Compositions and methods utilizing hydroxamates to scavenge oxidant toxins” (priority 2002, published 2003).

Counter-ions that a name gives are not always drawn. Some results are limits rather than exact numbers.

Take `CCCCOc1ccc(CC(=O)NO)cc1` [bufexamac]: the “oral LD50 dose” value with rat (in vivo, po) was 3,370 mg/kg. The “intraperitoneal LD50 dose” value in the series on rat (intraperitoneal) was 805 mg/kg. The “subcutaneous LD50 dose” value with rat (subcutaneous) is listed as > 5,000 mg/kg.

As for `CC(=O)N(O)CCCCCNC(=O)CCC(=O)N(O)CCCCCNC(=O)CCC(=O)N(O)CCCCCN` [desferoxamine mesylate], the “time to leave the vascular space after administration” value was at most 60 min.
